Literature values in paper PMC7033111, “Rational design of novel benzisoxazole derivatives with acetylcholinesterase inhibitory and serotoninergic 5-HT4 receptors activities for the treatment of Alzheimer’s disease” (Scientific Reports, 2020).

How the values were obtained:
hAChE = test system: hAChE; parameters: method as in PMID 25157130; settings: donecopride reference value; cited from earlier work
h5-HT4eR = settings: donecopride reference value; read-out: 5-HT4R Ki; cited from earlier work
5-HT4R = settings: cited from earlier work
[1] = parameters: method as in PMID 25157130; settings: mice; cited from earlier work

**Q.** With COc1cc(N)c(Cl)cc1C(=O)CCC1CCN(CC2CCCCC2)CC1 [donecopride] as the molecule, how does the IC50 (hAChE) read?
**A.** The IC50 was 16 ± 5 nM.

**Q.** What about the Ki (h5-HT4eR) of the same molecule?
**A.** The Ki was 8.5 ± 0.3 nM.

**Q.** And the “% of control agonist response (5-HT4R)” value (5-HT4R)?
**A.** The value was 48%.

**Q.** And the “in vivo effects, object recognition test” value [1]?
**A.** The value was “improvement of memory performances”.
